Legend:
human keratocytes = assay: Scavenger-type anti-oxidizing activity assay (DCA probe, H2O2 oxidative stress); assay type: cell-based; settings: 0.05 mg/ml
Text: Assessment of anti-oxidizing activity of the sample on human cells exposed to chemical-type progressive oxidative stress. The assessment of anti-oxidizing action is obtained from quantification of free radical formation in cells exposed to the sample and to oxidative stress. The method applied is based on the use of the fluorimetric probe 2,7 dichlorofluorescein acetate-DCA-: this probe penetrates into cells, binds to cell membrane proteins and macromolecules. In this form, the probe is not fluorescent, only becoming fluorescent when oxidized by free radicals. Cells pretreated with DCA are exposed to the various dilutions of the sample and hydrogen peroxide. […] Starting from this mother solution, the first dilution was prepared at a concentration of 0.5 mg/ml in saline; therefrom, by applying a 1:2 dilution factor, the other four dilutions were obtained. Positive Control: cells exposed to the 500 μM H2O2 solution. Internal Control: cells exposed to an ascorbic acid solution (0.05 mg/ml). Negative Control: cells exposed to the inoculation medium. The assay was performed on a simple cell model consisting of a monolayer of stabilized human keratocytes (cells were purchased from IZSLER and are guaranteed as free from any viral/bacterial contamination and/or from mycoplasma). […] The same procedure was carried out to obtain the same five dilutions in a 500 μM H2O2 solution in saline. 150 μl per each dilution (in saline and in H2O2) were distributed into four wells on two different plates. Cultured cells were enzymatically detached from the growth medium and counted with an electronic cell counter (Scepter); a cell suspension was prepared (in inoculation medium) at the density of 300,000 cells/ml, which were then distributed into 96-well plates: 100 μl per well, obtaining a seeding density of 30,000 cells per well. Lastly, the plates were placed back to culture in an incubator at 37° C. and 5% CO2-enriched humid atmosphere for the subsequent 24 hours. The inoculation medium was removed, cells were washed once with PBS, then PBS was discarded and 150 μl DCA (4 μM) was distributed in both plates. Then, the plates were placed back in incubator at 37° C. and 5% CO2-enriched atmosphere for 15 minutes. At the end of the DCA incubation period, the solution was removed, and cells were washed once with PBS, then 150 μl of the above-described dilutions of the sample and of the controls were distributed in the plates. Then, free radical formation was measured from T0 (right after inoculation into the two plates) every 20 minutes, up to 100 minutes (5 measurements) with a fluorimeter. At the end of the measurements, after the 100 minutes, the inoculate of both plates was removed and Neutral Red Uptake vitality assay was performed. F.U.: fluorescence unit F.U. positive control: average of F.U. emitted from cells exposed to the H2O2 solution (maximum production of free radicals) F.U. negative control: average of F.U. emitted from cells not exposed to oxidative stress At each time interval of exposure ([NT]5) there were carried out: the average of F.U. emitted from cells exposed to the sample, to vitamin C without oxidative stress, is subtracted from the average of F.U. emitted from cells exposed to the sample, to vitamin C and oxidative stress. In other words, the average values of fluorescence emitted from the non-stressed plate were subtracted from the average values of fluorescence emitted from the stressed plate. […]: cells exposed to the sole sample F.U. Controlpos: cells exposed to the sole oxidative stress F.U. Controlneg: cells exposed to saline without oxidative stress

[1] = Stability of the composition (total tannins as pyrogallol, EP 9.2, 2.8.14); assay type: physicochemical; settings: fluid form (syrup), 40° C. and 75% of relative humidity, six months
Protocol: The stability of the composition of the invention in fluid form (syrup, as per examples above, at 2) with regard to tannins was assessed by measuring the content of total tannins, expressed as pyrogallol, by means of spectrophotometric method described in European Pharmacopoeia (EP 9.2, 2.8.14) for agrimony.

Which “% PROTECTION FROM FREE RADICALS” value (human keratocytes; 20 MIN, 500 μM H2O2) does the source give for `O=C1O[C@H]([C@@H](O)CO)C(O)=C1O` [Vit. C, Ascorbic acid] here?
The value was 57%.

And the “FREE RADICAL DEVELOPMENT” value (human keratocytes; 20 MIN, 500 μM H2O2)?
Its value is 5993.

And the “% PROTECTION FROM FREE RADICALS” value (human keratocytes; 40 MIN, 500 μM H2O2)?
Its value is 60%.

And the “FREE RADICAL DEVELOPMENT” value (human keratocytes; 40 MIN, 500 μM H2O2)?
Its value is 5721.

What about the “% PROTECTION FROM FREE RADICALS” value (human keratocytes; 60 MIN, 500 μM H2O2) of the same molecule?
Its value is 60%.

And the “FREE RADICAL DEVELOPMENT” value (human keratocytes; 60 MIN, 500 μM H2O2)?
The value was 5240.

What about the “% PROTECTION FROM FREE RADICALS” value (human keratocytes; 80 MIN, 500 μM H2O2) of the same molecule?
Its value is 63%.

And the “FREE RADICAL DEVELOPMENT” value (human keratocytes; 80 MIN, 500 μM H2O2)?
Its value is 4802.

What about the “% PROTECTION FROM FREE RADICALS” value (human keratocytes; 100 MIN, 500 μM H2O2) of the same molecule?
The value was 61%.

And the “FREE RADICAL DEVELOPMENT” value (human keratocytes; 100 MIN, 500 μM H2O2)?
Its value is 4937.

What about the “% PROTECTION FROM FREE RADICALS” value (human keratocytes; T0, 500 μM H2O2) of the same molecule?
Its value is 45%.

And the “FREE RADICAL DEVELOPMENT” value (human keratocytes; T0, 500 μM H2O2)?
The value was 5654.

What about the “stability in fluid form” value ([1]; listed as Vitamin C) of the same molecule?
Its value is “did not exhibit stability beyond T0”.

What about the “stability in fluid form” value ([1]; listed as vitamin C) of the same molecule?
Its value is “markedly unstable”.

Reference: US11154564B2, “Composition for cough” (Aboca S.p.A. Società Agricola, priority 2017, dated 2021)
